Measurements reported in PubChem BioAssay AID435019 (Southern Research Specialized Biocontainment Screening …, 2010).

System: mammalian cell viability, cytotoxicity counter-screen
Test: mammalian cell cytotoxicity, dose response, cytotoxicity control for M. tuberculosis inhibitor project (AID 435019)

C[CH2][Hg][S]c1ccccc1C(=O)O
CC50: 3.56 µM

CN(C)c1ccnc2c[cH-]cc12.[Fe].c1ccc(-[c-]2[c-](-c3ccccc3)[c-](-c3ccccc3)[c-](-c3ccccc3)[c-]2-c2ccccc2)cc1 (configuration not stated)
CC50: 11.8 µM
